Here are results for two substances from paper PMC4067742, “Direct Observations of Amyloid β Self-Assembly in Live Cells Provide Insights into Differences in the Kinetics of Aβ(1–40) and Aβ(1–42) Aggregation” (Chemistry & Biology, 2014).

The assay relates to SH-SY5Y cells. The assay can be described thus: dSTORM superresolution imaging of intracellular aggregates. The assay is classed as cell-based, human. The note with it: 500 nM monomers, fixed cells; for average size of intracellular aggregates (diameter / longest dimension) after 24 hr: pixel counting in dSTORM images, only aggregates above resolution limit (55–70 nm), n = 18–27; for change in size of intracellular aggregates between 24 and 48 hr: pixel counting in dSTORM images (Figure 5B). How it is done:
To further investigate the nature of the intracellular Aβ(1–40) and Aβ(1–42) aggregates, we used superresolution fluorescence microscopy to analyze their physical appearance. […] Thus, we treated SH-SY5Y cells with 500 nM of ^HF647Aβ(1–40) or 500 nM of ^HF647Aβ(1–42) monomers for periods of 24 and 48 h. Thereafter, the cells were fixed, immersed in switching buffer, and imaged at single-molecule resolution using a homebuilt total internal reflection fluorescence (TIRF) microscope operated under highly inclined illumination ([Tokunaga et al., 2008]) to obtain images from an image plane within the cells. Superresolved images (Figure 5A) of the intracellular ^HF647Aβ(1–40) and ^HF647Aβ(1–42) aggregates were then reconstructed as described in the Experimental Procedures. dSTORM results in a dramatic increase in resolution compared with conventional confocal imaging (Figure S4). In this case, the lateral resolution of our images was calculated to be 55–70 nm using a blind assessment density estimation approach ([Rees et al., 2012]). Features larger than the lateral resolution limit can, therefore, be interpreted with confidence as having approximately the correct size and shape. […] The ^HF647Aβ(1–42) aggregates, by contrast, appear to include both spherical and elongated species, with an average size along their longest dimension of approximately 225 nm (Figure 5B). The observation that, after 24 hr, ^HF647Aβ(1–42) forms intracellular species that are larger than those formed by ^HF647Aβ(1–40) is consistent with the differences in their mean fluorescence lifetimes (Figures 4C, 4D, and 5C). […] Comparison of the FLIM and dSTORM data recorded after 24 and 48 hr indicates a qualitative relationship between aggregate size and HF488 fluorescence lifetime (Figures 5B and 5C), supporting the conclusion that the fluorescence lifetime reflects the nature and abundance of the Aβ amyloid aggregates formed in vivo.
Human neuroblastoma cells (SH-SY5Y) were grown in 1:1 minimal essential medium (MEM) and nutrient mixture F-12 Ham (Sigma-Aldrich) with sodium bicarbonate, including 15% heat-inactivated fetal bovine serum, 1% MEM non-essential amino acids, 2 mM […], 1% penicillin-streptomycin (10,000 U/ml K1), and 0.1% fungizone (amphotericin B, […] K1) (Life Technologies). Cells were plated 1 day prior to experiments in glass-bottomed culture dishes (MatTek) at a density of 50,000 cells/14-mm dish. […]
All dSTORM experiments were carried out using HF647-labeled peptides. Fluorescence images for dSTORM were taken on a Nikon Te-300 Eclipse inverted wide field microscope, with a 100×, 1.49 numerical aperture TIRF objective lens, an Andor iXon 887DV electron-multiplying charge-coupled device camera, and a Semrock fluorescence filter set (LF405/488/561/635-A-00). […]

In the case of “^HF647Aβ(1–42): Synthetic amyloid β (1–42) peptide labeled at the N terminus with Hilyte Fluor 647, purchased from Anaspec”, the “average size of intracellular aggregates (diameter / longest dimension) after 24 hr” value is listed as “approximately 225 nm”; the “change in size of intracellular aggregates between 24 and 48 hr” value is given as “no significant change in the size”.
The corresponding values for “^HF647Aβ(1–40): Synthetic amyloid β (1–40) peptide labeled at the N terminus with Hilyte Fluor 647, purchased from Anaspec” are “approximately 160 nm” and “appear to have increased in size”.
